Activity calls are given as the source filed them.
Assays:
[1] = CRF-BP/CRF-R2 complex antagonists, dose response, cell-based, uHTS hits, 384-well (AID 651639); type: functional, Homo sapiens; conditions: read-out: IC50_Mean
[2] = target: T1, Corticotropin-releasing factor receptor 2/Corticotropin-releasing factor-binding protein (Homo sapiens, UniProt P24387+Q13324); experiment: activators of CRF receptor 2 with binding protein – uHTS hits, confirmation (AID 602473); type: functional; conditions: read-out: EC50_Mean
T1 sequence (Q13324 whole entry): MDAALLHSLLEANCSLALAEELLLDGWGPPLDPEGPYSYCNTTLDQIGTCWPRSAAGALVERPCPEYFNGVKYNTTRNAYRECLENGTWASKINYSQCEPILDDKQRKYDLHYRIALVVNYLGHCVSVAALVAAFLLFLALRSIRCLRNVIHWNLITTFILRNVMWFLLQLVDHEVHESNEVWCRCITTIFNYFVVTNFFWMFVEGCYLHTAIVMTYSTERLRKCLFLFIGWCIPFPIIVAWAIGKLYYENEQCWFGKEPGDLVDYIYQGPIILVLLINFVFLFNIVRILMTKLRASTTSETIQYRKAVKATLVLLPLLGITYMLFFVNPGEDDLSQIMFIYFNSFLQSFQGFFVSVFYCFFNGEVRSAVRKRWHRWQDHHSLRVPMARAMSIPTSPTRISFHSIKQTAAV
T1 sequence (P24387 whole entry): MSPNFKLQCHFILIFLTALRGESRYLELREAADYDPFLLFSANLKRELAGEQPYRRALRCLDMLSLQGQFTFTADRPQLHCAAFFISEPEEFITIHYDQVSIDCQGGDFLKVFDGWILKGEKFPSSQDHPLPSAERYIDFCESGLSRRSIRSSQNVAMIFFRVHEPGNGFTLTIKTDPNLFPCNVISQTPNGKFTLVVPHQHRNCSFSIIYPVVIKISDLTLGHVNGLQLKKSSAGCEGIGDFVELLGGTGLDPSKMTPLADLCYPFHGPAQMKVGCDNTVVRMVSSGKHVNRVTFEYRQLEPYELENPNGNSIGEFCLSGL

[3] = target: T1, Corticotropin-releasing factor receptor 2/Corticotropin-releasing factor-binding protein; experiment: Dose Response confirmation of uHTS hits for small molecule antagonists of the CRF-binding protein and CRF-R2 receptor complex.; type: functional; conditions: read-out: IC50_Mean
[4] = inhibitors of clade B AD8 Env fusion, dose response, cell-based, cherry-pick (AID 652062); type: functional;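 note: luciferase signal from cell-cell fusion driven by HIV-1 clade B AD8 Env; potency is for inhibitors of fusion seen as a drop in luminescence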
[5] = inhibitors of HIV Env-driven cell fusion, dose response, cherry-pick (AID 652057); type: functional, cell-based
[6] = target: T2, Histone-lysine N-methyltransferase NSD2 (Homo sapiens, UniProt O96028); type: biochemical
T2 sequence (O96028 whole entry): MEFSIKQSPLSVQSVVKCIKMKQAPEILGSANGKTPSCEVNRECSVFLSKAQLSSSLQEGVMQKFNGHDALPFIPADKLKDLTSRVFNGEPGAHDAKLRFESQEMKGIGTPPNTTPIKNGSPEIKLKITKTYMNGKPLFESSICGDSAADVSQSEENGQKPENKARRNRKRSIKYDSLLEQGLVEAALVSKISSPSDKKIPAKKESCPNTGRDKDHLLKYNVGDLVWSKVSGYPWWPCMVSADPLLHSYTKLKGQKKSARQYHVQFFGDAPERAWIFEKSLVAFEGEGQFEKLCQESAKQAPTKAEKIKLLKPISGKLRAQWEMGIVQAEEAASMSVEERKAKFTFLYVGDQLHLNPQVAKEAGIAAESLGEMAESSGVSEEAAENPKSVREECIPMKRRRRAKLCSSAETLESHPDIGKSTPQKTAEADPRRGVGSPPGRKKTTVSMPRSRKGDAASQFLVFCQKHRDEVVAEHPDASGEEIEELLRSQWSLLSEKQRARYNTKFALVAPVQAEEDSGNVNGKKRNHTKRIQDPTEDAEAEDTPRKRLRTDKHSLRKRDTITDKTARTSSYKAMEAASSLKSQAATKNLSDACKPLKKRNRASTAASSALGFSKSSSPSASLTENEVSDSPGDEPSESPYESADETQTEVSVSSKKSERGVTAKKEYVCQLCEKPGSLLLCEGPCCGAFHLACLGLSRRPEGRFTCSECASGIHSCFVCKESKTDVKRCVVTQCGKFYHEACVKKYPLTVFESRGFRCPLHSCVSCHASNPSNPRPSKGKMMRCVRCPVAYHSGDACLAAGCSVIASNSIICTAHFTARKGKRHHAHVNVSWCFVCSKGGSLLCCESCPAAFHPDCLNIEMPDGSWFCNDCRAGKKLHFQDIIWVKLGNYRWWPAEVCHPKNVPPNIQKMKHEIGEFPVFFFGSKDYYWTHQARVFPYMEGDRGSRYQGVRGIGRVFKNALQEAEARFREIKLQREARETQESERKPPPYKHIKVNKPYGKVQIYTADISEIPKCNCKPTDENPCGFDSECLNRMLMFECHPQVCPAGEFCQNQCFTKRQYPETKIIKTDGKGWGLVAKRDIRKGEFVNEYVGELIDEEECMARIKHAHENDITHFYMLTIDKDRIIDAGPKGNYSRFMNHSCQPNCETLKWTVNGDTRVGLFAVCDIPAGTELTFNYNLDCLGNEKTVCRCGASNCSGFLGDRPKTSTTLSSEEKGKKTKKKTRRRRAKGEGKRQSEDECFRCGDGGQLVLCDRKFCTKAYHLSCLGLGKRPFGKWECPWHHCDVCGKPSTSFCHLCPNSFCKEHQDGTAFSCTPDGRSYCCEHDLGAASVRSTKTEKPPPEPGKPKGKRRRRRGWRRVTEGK

[7] = test system: H4; experiment: Luminescence Cell-Based Dose Response HTS to Identify Activators of 5'UTR Stem-Loop Driven Prion Protein mRNA Translation in H4 Neuroglioblastoma Cells. [Related pubchem assays: 1829 (Project Summary), 1814 (Primary HTS)]; type: functional; conditions: Homo sapiens
[8] = Luminescence Cell-Based Dose Confirmation HTS to Identify Activators of 5'UTR Stem-Loop Driven Alpha-Synuclein mRNA Translation in H4 Neuroglioblastoma Cells. [Related pubchem assays: 1829 (Project Summary), 1814 (Primary HTS)]; type: functional
[9] = Luminescence Cell-Based Dose Response HTS to Identify Activators of Luciferase Translation or Activity in H4 […] Cells. [Related pubchem assays: 1829 (Project Summary), 1814 (Primary HTS)]; type: functional
[10] = target: Cytochrome P450 2C19 (Homo sapiens, UniProt P33261); experiment: Cytochrome panel assay with activity outcomes. Panel member name: p450-cyp2c19 Compounds with AC50 equal or less than 10 uM are considered active; type: functional; conditions: read-out: AC50
[11] = target: Induced myeloid leukemia cell differentiation protein Mcl-1 (Homo sapiens, UniProt Q07820); type: functional
[12] = target: FAD-linked sulfhydryl oxidase ALR (Homo sapiens, UniProt P55789); experiment: inhibitors of human ALR sulfhydryl oxidase, dose response, biochemical, H2O2 detection, luminescence, cherry-pick (AID 493248)
[13] = P. falciparum Dd2 growth inhibitors, dose response, SYBR Green, cherry-picked samples (AID 1159567); type: functional, cell-based

Sequence of FAD-linked sulfhydryl oxidase ALR (P55789 whole entry): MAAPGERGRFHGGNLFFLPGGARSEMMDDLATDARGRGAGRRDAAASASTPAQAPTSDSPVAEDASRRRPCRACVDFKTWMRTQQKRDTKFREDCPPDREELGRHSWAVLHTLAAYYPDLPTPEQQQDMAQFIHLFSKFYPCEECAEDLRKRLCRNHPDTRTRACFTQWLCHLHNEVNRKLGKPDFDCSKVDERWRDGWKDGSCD
Sequence of Induced myeloid leukemia cell differentiation protein Mcl-1 (Q07820 whole entry): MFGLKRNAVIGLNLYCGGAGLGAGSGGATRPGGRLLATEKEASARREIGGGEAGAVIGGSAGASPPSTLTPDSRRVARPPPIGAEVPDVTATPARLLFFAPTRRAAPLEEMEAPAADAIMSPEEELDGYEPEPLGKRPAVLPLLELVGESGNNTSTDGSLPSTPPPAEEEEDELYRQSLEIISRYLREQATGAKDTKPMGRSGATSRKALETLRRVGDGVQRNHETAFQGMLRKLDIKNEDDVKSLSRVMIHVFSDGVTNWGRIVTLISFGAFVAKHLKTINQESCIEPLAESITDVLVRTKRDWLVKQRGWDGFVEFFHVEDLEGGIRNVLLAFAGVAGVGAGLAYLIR
Sequence of Cytochrome P450 2C19 (P33261 whole entry): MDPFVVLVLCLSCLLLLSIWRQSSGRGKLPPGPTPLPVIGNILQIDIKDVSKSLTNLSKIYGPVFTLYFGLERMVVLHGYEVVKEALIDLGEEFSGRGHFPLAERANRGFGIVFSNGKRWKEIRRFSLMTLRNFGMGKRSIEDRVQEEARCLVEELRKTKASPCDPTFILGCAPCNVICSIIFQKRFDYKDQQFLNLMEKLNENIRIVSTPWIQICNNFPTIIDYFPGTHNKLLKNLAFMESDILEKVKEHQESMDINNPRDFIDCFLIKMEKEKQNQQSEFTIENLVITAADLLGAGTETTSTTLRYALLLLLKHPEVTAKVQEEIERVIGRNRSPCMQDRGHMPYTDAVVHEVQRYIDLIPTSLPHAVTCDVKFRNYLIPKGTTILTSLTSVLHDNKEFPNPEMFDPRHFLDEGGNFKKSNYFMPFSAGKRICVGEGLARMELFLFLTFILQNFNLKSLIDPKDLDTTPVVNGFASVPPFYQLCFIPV

For CCCNc1ccc(C(=O)OCC)cc1[N+](=O)[O-], the IC50 [1] was > 20 µM (inactive), the EC50 [2] was > 53 µM (inactive) and the IC50 [3] was 17.6 µM (active).

In the case of CN1C(=O)c2cc(NC(=O)c3cscn3)ccc2OC[C@@H]2O[C@@H](CC(=O)NCc3ccc(Cl)c(Cl)c3)CC[C@H]21, the AC50 [4] is reported as 3.19 µM (active) and the AC50 [5] is reported as 48.6 µM (active).

With CCN(CC)c1ccc(CN2CC=C(c3ccc(F)cc3)CC2)cc1 the AC50 [6] was > 20 µM (inactive).

For CC(CNC(=O)c1ccc(OC2CCN(Cc3ccccn3)CC2)cc1)c1ccccc1 (stereo not given), the EC50 [7] was 35.6 µM (active), the EC50 [8] was 18.2 µM (active) and the EC50 [9] was 53.8 µM (active).

In the case of O=C1NC(=S)N(C2CC2)C(=O)/C1=C/Nc1ccc2c(c1)OCO2, the EC50 [7] is reported as 18.7 µM (active), the EC50 [8] is reported as 95.4 µM (active) and the EC50 [9] is reported as 13.3 µM (active).

For CC(=O)c1ccc(-n2c(CCC(=O)O)ccc2-c2cccs2)cc1, the AC50 [10] was 11.2 µM (inconclusive) and the IC50 [11] was 9.23 µM (not active).

With COc1ccc(N2C(=O)CSC2c2ccc([N+](=O)[O-])cc2)cc1 (stereo not given) the IC50 [1] was 6.91 µM (active), the EC50 [2] was > 53 µM (inactive) and the AC50 [12] was 5.9 µM (active). For the same molecule, the IC50 [3] was 46.8 µM (active).

For C#CCn1c(=O)c2c(ncn2C)n(C)c1=O, the AC50 [4] was 43.1 µM (active).

For O=C(NCC1CCCO1)c1cc2c(s1)CCC2 (stereo not given), the EC50 [7] was 50.9 µM (active), the EC50 [8] was 20.3 µM (active) and the EC50 [9] was 18.7 µM (active).

For COc1cc2nc3c(O)n4c(nc-3c2cc1OC)SCCC4, the EC50 [7] was 24.5 µM (active), the IC50 [1] was > 20 µM (inactive) and the EC50 [2] was > 53 µM (inactive). For the same molecule, the EC50 [8] was > 120 µM (not active), the IC50 [3] was 3.83 µM (active) and the EC50 [9] was 3.61 µM (active).

In the case of CCCC(=O)Nc1ccc2c(c1)OC[C@@H](C)N(Cc1cc(-c3ccccc3)on1)C[C@@H](C)[C@H](OC)CN(C)C2=O, the AC50 [13] is reported as 5.19 µM (active).

With C[C@H]1CN([C@@H](C)CO)C(=O)c2c(c3ccccc3n2C)-c2ccccc2CO[C@H]1CN(C)S(=O)(=O)c1ccccc1C#N the AC50 [13] was 5 µM (active).
